Experiments:
Type in all cases: in vivo
Galium aparine = assay: Herbicidal action in the field (post-emergence treatment); settings: Ia.33 1.9 g/ha a.s.
Source text: (§1) The mixtures according to the invention were applied pre- or post-emergence (foliar treatment). The herbicidal compounds of component B were applied in the formulation in which they are present as commercially available product.
(§2) Some of the experiments were greenhouse experiments and some were field trials on mini plots (on a site with sandy loam (pH 6.2 to 7.0) or sandy clay (pH 5.0 to 6.7) as the soil).
(§3) The harmful plants differed with regard to size and developmental state; on average, they were 5 to 20 cm long, depending on the growth habit.
(§4) The herbicidally active compounds of components A) and B) were applied in succession or jointly, in the latter case in some cases as a tank mix and in some cases as a readymix, in the form of emulsions, aqueous solutions or suspensions, the vehicle being water ([…]). In the case of the field trials, application was effected with the aid of a mobile plot sprayer.
(§5) The test period extended over 3 to 8 weeks, and the stands were also observed at later points in time.
(§6) Damage by the herbicidal compositions was evaluated with reference to a scale of 0% to 100% in comparison with untreated control plots. 0 means no damage and 100 means complete destruction of the plants.
(§7) In these examples, the value E at which only an additive effect of the individual active ingredients is to be expected was calculated by the method of S. R. Colby (Calculating synergistic and antagonistic responses of herbicide combinations, Weeds 15, 20 pp (1967).

Ipomoea lacunosa = assay: as above; settings: Ia.33 75 g/ha a.s.
Source text: as §1, §2, §3, §4, §5, §6, §7

Panicum miliaceum = assay: as above; settings: Ia.33 50 g/ha a.s.
Source text: as §1, §2, §3, §4, §5, §6, §7

Setaria faberi [1] = assay: as above; settings: Ia.33 75 g/ha a.s.
Source text: as §1, §2, §3, §4, §5, §6, §7

Sorghum bicolor = assay: as above
Source text: as §1, §2, §3, §4, §5, §6, §7

Sorghum halepense = assay: as above; settings: for Damage (%): Sorghum halepense, field, post-emergence, Ia.33 75 g/ha a.s.
Source text: as §1, §2, §3, §4, §5, §6, §7

Abutilon theophrasti = assay: Herbicidal action in the greenhouse (post-emergence treatment); settings: Ia.33 7.8 g/ha a.s.
Source text: as §1, §2, §3, §4, §5, §6, §7

Alopecurus myosuroides = assay: as above
Source text: as §1, §2, §3, §4, §5, §6, §7

Amaranthus retroflexus [2] = assay: as above; settings: Amaranthus retroflexus, post-emergence
Source text: as §1, §2, §3, §4, §5, §6, §7

Echinochloa crus-galli [3] = assay: as above
Source text: as §1, §2, §3, §4, §5, §6, §7

Ipomoea ssp. = assay: as above
Source text: as §1, §2, §3, §4, §5, §6, §7

Setaria faberi [4] = assay: as above; settings: Ia.33 7.8 g/ha a.s.
Source text: as §1, §2, §3, §4, §5, §6, §7

Veronica ssp. = assay: as above
Source text: as §1, §2, §3, §4, §5, §6, §7

Zea mays = assay: Phytotoxicity to crop plant in the greenhouse (post-emergence treatment)
Source text: as §1, §2, §4, §5, §6, §7

Triticum aestivum = assay: as above; settings: Table 83, Ia.52 62.5 g/ha a.s.
Source text: as §1, §2, §4, §5, §6, §7

Digitaria sanguinalis = assay: Herbicidal action in the greenhouse (pre-emergence treatment); settings: S-Metolachor 125 g/ha a.s.
Source text: as §1, §2, §3, §4, §5, §6, §7

Echinochloa crus-galli [5] = assay: as above; settings: S-Metolachlor 62.5 g/ha a.s.
Source text: as §1, §2, §3, §4, §5, §6, §7

Setaria viridis = assay: as above; settings: S-Metolachlor 62.5 g/ha a.s.
Source text: as §1, §2, §3, §4, §5, §6, §7

Amaranthus retroflexus [6] = assay: Herbicidal action in the field (post-emergence treatment); settings: dicamba 280 g/ha a.s.
Source text: as §1, §2, §3, §4, §5, §6, §7

Q: For `Cc1c(C(=O)c2cnn(C)c2O)ccc(S(C)(=O)=O)c1C1=NOCC1` [Ia.33, 4-[2-methyl-3-(4,5-dihydroisoxazol-3-yl)-4-methylsulfonylbenzoyl]-1-methyl-5-hydroxy-1H-pyrazole], which Damage (Galium aparine) is on record?
A: 20%

Q: And the Damage (Ipomoea lacunosa)?
A: 69%

Q: And the “Damage (%)” value (Ipomoea lacunosa; Table 81, Ipomoea lacunosa, field, post-emergence)?
A: 69%

Q: What about the Damage (Panicum miliaceum) of the same molecule?
A: 87%

Q: And the Damage (Setaria faberi [1])?
A: 65%

Q: And the “Damage (%)” value (Setaria faberi [1]; Table 82, Setaria faberi, field, post-emergence)?
A: 65%

Q: And the Damage (Sorghum bicolor; Ia.33 75 g/ha a.s. (Table 73))?
A: 78%

Q: And the Damage (Sorghum halepense; Ia.33 75 g/ha a.s. (Table 32))?
A: 78%

Q: What about the Damage (Sorghum halepense; Ia.33 75 g/ha a.s. (Table 42)) of the same molecule?
A: 78%

Q: And the “Damage (%)” value (Sorghum halepense; Table 78)?
A: 78%

Q: And the “Damage (%)” value (Sorghum halepense; Table 79)?
A: 78%

Q: What about the Damage (Abutilon theophrasti) of the same molecule?
A: 90%

Q: And the Damage (Alopecurus myosuroides; Ia.33 15.6 g/ha a.s.)?
A: 40%

Q: What about the Damage (Alopecurus myosuroides; Ia.33 62.5 g/ha a.s. (Table 19)) of the same molecule?
A: 40%

Q: And the Damage (Alopecurus myosuroides; Ia.33 62.5 g/ha a.s. (Table 62))?
A: 40%

Q: What about the pest or weed control at 1.9 g/ha (Amaranthus retroflexus [2]; read-out: Damage, Ia.33 1.9 g/ha a.s.) of the same molecule?
A: 30%

Q: And the pest or weed control at 7.8 g/ha (Amaranthus retroflexus [2]; read-out: Damage, Ia.33 7.8 g/ha a.s.)?
A: 70%

Q: What about the Damage (Echinochloa crus-galli [3]; Ia.33 1.9 g/ha a.s.) of the same molecule?
A: 55%

Q: What about the Damage (Echinochloa crus-galli [3]; Ia.33 15.6 g/ha a.s.) of the same molecule?
A: 90%

Q: What about the Damage (Ipomoea ssp.; Ia.33 3.9 g/ha a.s.) of the same molecule?
A: 50%

Q: What about the Damage (Ipomoea ssp.; Ia.33 62.5 g/ha a.s.) of the same molecule?
A: 80%

Q: And the Damage (Setaria faberi [4])?
A: 90%

Q: And the Damage (Veronica ssp.; Ia.33 15.6 g/ha a.s.)?
A: 60%

Q: And the Damage (Veronica ssp.; Ia.33 62.5 g/ha a.s. (Table 18))?
A: 20%

Q: What about the Damage (Veronica ssp.; Ia.33 62.5 g/ha a.s. (Table 51)) of the same molecule?
A: 80%

Q: What about the “Phytotoxicity (%)” value (Zea mays; Table 84, Ia.33 62.5 g/ha a.s.) of the same molecule?
A: 0%

Q: With `Cc1cc(-c2c(S(C)(=O)=O)ccc(C(=O)c3cnn(C)c3O)c2Cl)on1` [Ia.52, 4-[2-chloro-3-(3-methyl-isoxazol-5-yl)-4-methylsulfonylbenzoyl]-1-methyl-5-hydroxy-1H-pyrazole] as the molecule, how does the pest or weed control at 62.5 g/ha (Amaranthus retroflexus [2]; read-out: Damage, Ia.52 62.5 g/ha a.s.) read?
A: 75%

Q: What about the Damage (Veronica ssp.; Ia.52 15.6 g/ha a.s.) of the same molecule?
A: 40%

Q: What about the “Phytotoxicity (%)” value (Triticum aestivum) of the same molecule?
A: 0%

Q: Which results are given for `CCc1cccc(C)c1N(C(=O)CCl)[C@@H](C)COC` [S-Metolachlor, S-metolachlor, reference compound]?
A: Damage (Ipomoea ssp.; S-Metolachlor 62.5 g/ha a.s.): 0%; Damage (Veronica ssp.; S-Metolachlor 125 g/ha a.s.): 0%; Damage (Digitaria sanguinalis): 50%; Damage (Echinochloa crus-galli [5]): 65%; Damage (Setaria viridis): 70%; Phytotoxicity (%) (Zea mays; Table 84, S-Metolachlor 125 g/ha a.s.): 0%

Q: How did the Damage (Amaranthus retroflexus [6]) turn out when `COc1c(Cl)ccc(Cl)c1C(=O)O` [dicamba, reference compound] was run?
A: 25%

Q: What about the Damage (Sorghum bicolor; dicamba 560 g/ha a.s.) of the same molecule?
A: 17%

— patent publication US20030203819A1, “Synergistically acting herbicidal mixtures” (priority 1998, published 2003)
